Several values for one entry are separate records, joined by “and”; a condition that tells them apart may be missing. Identical values can stand only once.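 Cells were grown in 96-well plates and exposed to each compound for 48 hours at five concentrations; endpoints were interpolated linearly between bracketing concentrations, or set to the highest concentration if not reached. GI50: concentration for 50% inhibition of growth. TGI marks complete inhibition of growth.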

Among the test systems are A549 NSCLC; ACHN renal; HT29 colon; LOX IMVI melanoma; MDA-MB-435; NCI-H522 lung; OVCAR-3 ovarian; SK-MEL-2 melanoma; SW-620 colon; TK-10 renal.
Common to all, as to test: inhibition of tumour cell growth, NCI panel, 48 h

`Oc1c(Cl)cc(Cl)c2ccc(Cn3cc(-c4ccc(C(F)(F)F)cc4)nn3)nc12`: the GI50 in the assay on A549 NSCLC was 16.5 µM; in the assay with ACHN renal, 1.35 µM; with HT29 colon, 2.46 µM; in the assay on LOX IMVI melanoma, 0.299 µM; in the assay with MDA-MB-435, 1.76 µM; in the assay with NCI-H522 lung it was 1.42 µM. In addition, the GI50 in the assay with OVCAR-3 ovarian is 1.33 µM; in the assay on SK-MEL-2 melanoma it was 2.67 µM; in the assay on SW-620 colon it was 0.493 µM; in the assay on TK-10 renal, 1.95 µM. The TGI came out at 38.6 µM in the assay with A549 NSCLC; 2.67 µM in the assay on ACHN renal; 6.75 µM in the assay on HT29 colon; 1.11 µM with LOX IMVI melanoma; 3.75 µM in the assay with MDA-MB-435; 3.79 µM in the assay with NCI-H522 lung. Moreover, the TGI was 2.74 µM in the assay on OVCAR-3 ovarian, 7.65 µM in the assay with SK-MEL-2 melanoma, 1.83 µM in the assay with SW-620 colon and 4.22 µM in the assay with TK-10 renal.
Consider `CCCCCCCC/C=C/CCCCCCCC1=NC(C)(C)CN1CCO`, for which the GI50 was 1.91 µM with A549 NSCLC; 2.28 µM in the assay on ACHN renal; 1.51 µM in the assay on HT29 colon; 1.55 µM in the assay with LOX IMVI melanoma; 1.73 µM in the assay with MDA-MB-435; 1.81 µM in the assay on NCI-H522 lung. Moreover, the GI50 in the assay with OVCAR-3 ovarian was 4.52 µM; in the assay with SK-MEL-2 melanoma, 1.86 µM; in the assay with SW-620 colon, 1.73 µM; in the assay with TK-10 renal, 1.91 µM. In addition, the TGI stood at 3.56 µM with A549 NSCLC; 5.79 µM with ACHN renal; 3.1 µM in the assay with HT29 colon; 2.95 µM with LOX IMVI melanoma; 3.41 µM with MDA-MB-435; 3.58 µM in the assay on NCI-H522 lung. Also, the TGI is 9 µM with OVCAR-3 ovarian, 3.49 µM in the assay on SK-MEL-2 melanoma, 3.37 µM in the assay on SW-620 colon and 3.94 µM with TK-10 renal.
With `CCOC(=O)C(C#N)C1=CC(=O)C(=O)c2ccc(O)cc21` (stereo not drawn), the TGI is more than 100 µM in the assay with A549 NSCLC; more than 100 µM in the assay on ACHN renal; more than 100 µM in the assay with HT29 colon; more than 100 µM in the assay on LOX IMVI melanoma; 39.9 µM in the assay with MDA-MB-435; more than 100 µM in the assay on NCI-H522 lung. In addition, the TGI with OVCAR-3 ovarian, in the assay on SK-MEL-2 melanoma, in the assay on SW-620 colon and in the assay on TK-10 renal was more than 100 µM throughout.
`CCOc1ccn(-c2ccc(F)cc2)c(=O)c1C(=O)Nc1ccc(Oc2ccnc(N)c2Cl)c(F)c1`: the GI50 in the assay with A549 NSCLC was 9.12 µM; in the assay on ACHN renal it was 9.22 µM; in the assay with HT29 colon, 6.63 µM; in the assay with LOX IMVI melanoma, 5.33 µM; in the assay with MDA-MB-435 it was 6.27 µM; with NCI-H522 lung, 12.3 µM. The GI50 was 24.3 µM in the assay on OVCAR-3 ovarian, 14 µM in the assay with SK-MEL-2 melanoma, 5.01 µM in the assay with SW-620 colon and 15.1 µM with TK-10 renal. Moreover, the TGI with A549 NSCLC was 86.2 µM; with ACHN renal, more than 89.1 µM; with HT29 colon, 82.3 µM; in the assay with LOX IMVI melanoma, 19.3 µM; in the assay with MDA-MB-435, 42.6 µM; with NCI-H522 lung, 69.5 µM. For the same compound, the TGI with OVCAR-3 ovarian was more than 100 µM; in the assay with SK-MEL-2 melanoma it was 35.7 µM; with SW-620 colon, 38.4 µM; in the assay with TK-10 renal, 55.2 µM.
As for `O=C1c2ccccc2-c2c1c1ccccc1c(=O)n2CCCNCCn1c2c(c3ccccc3c1=O)C(=O)c1ccccc1-2`, the GI50 was 13.5 µM in the assay on A549 NSCLC; 12.3 µM with ACHN renal; 2.42 µM with HT29 colon; 0.0855 µM in the assay on LOX IMVI melanoma; 2.24 µM with MDA-MB-435; 14.6 µM with NCI-H522 lung. For the same compound, the GI50 in the assay with OVCAR-3 ovarian was 8.82 µM; in the assay with SK-MEL-2 melanoma, 28.2 µM; in the assay with SW-620 colon, 2.23 µM; in the assay with TK-10 renal it was 3.8 µM. In addition, the TGI in the assay on A549 NSCLC was found to be 26.3 µM; in the assay on ACHN renal, 24.8 µM; in the assay with HT29 colon it was 10 µM; with LOX IMVI melanoma, 3.16 µM; with MDA-MB-435, 6.11 µM; with NCI-H522 lung, 48.1 µM. Also, the TGI is 21.1 µM in the assay with OVCAR-3 ovarian, 96.9 µM in the assay with SK-MEL-2 melanoma, more than 100 µM with SW-620 colon and 15.8 µM in the assay on TK-10 renal.
Turning to `COc1cc(C(=O)c2cnc(-c3cccc4[nH]ccc34)[nH]2)cc(OC)c1OC`, the TGI with A549 NSCLC is more than 100 µM; in the assay on ACHN renal it was 33.8 µM; in the assay with HT29 colon it was less than 0.01 µM; in the assay on LOX IMVI melanoma, more than 100 µM; with SK-MEL-2 melanoma it was 36.1 µM; in the assay on SW-620 colon, more than 100 µM. Also, the TGI in the assay on TK-10 renal was found to be 66.6 µM. In addition, the GI50 with HT29 colon was 0.0493 µM and < 0.01 µM; with MDA-MB-435, 0.0282 µM; in the assay on NCI-H522 lung it was 0.0369 µM; in the assay on OVCAR-3 ovarian, 0.0366 µM and < 0.01 µM; in the assay on SK-MEL-2 melanoma, less than 0.01 µM; in the assay with TK-10 renal, less than 0.01 µM.
As to `CC[C@@H](C)/C=C(C)/C=C/C(=O)c1c(O)c(-c2ccc(O)cc2)cn(O)c1=O`, the GI50 in the assay with A549 NSCLC is 1.31 µM; with ACHN renal, 0.33 µM; in the assay on HT29 colon it was 3.22 µM; with LOX IMVI melanoma, 0.288 µM; in the assay on MDA-MB-435 it was 0.468 µM; with NCI-H522 lung, 0.399 µM. Moreover, the GI50 in the assay with OVCAR-3 ovarian was 0.395 µM; in the assay with SK-MEL-2 melanoma, 0.329 µM; with SW-620 colon, 0.55 µM; in the assay with TK-10 renal, 0.524 µM. The TGI with A549 NSCLC turned out to be 12 µM; in the assay with ACHN renal, 9.55 µM; in the assay with HT29 colon it was 11.4 µM; in the assay on LOX IMVI melanoma it was 7.64 µM; with MDA-MB-435, 17.5 µM; in the assay with NCI-H522 lung, 3.74 µM. For the same compound, the TGI was found to be 13 µM in the assay on OVCAR-3 ovarian, 16.8 µM in the assay with SK-MEL-2 melanoma, 14 µM with SW-620 colon and 15.3 µM in the assay on TK-10 renal.
Regarding `CC1=CC(C)(C)NN1C1=NS(=O)(=O)c2ccccc2N1C`, the TGI with A549 NSCLC, in the assay on ACHN renal, in the assay on HT29 colon, with LOX IMVI melanoma, with MDA-MB-435 and in the assay with NCI-H522 lung was more than 100 µM in each case. Further, the TGI in the assay with OVCAR-3 ovarian, in the assay with SK-MEL-2 melanoma, with SW-620 colon and with TK-10 renal was more than 100 µM each time.
For `O=C1O/C(=C/c2ccccc2)C(c2ccccc2)=C1O`, the TGI in the assay on A549 NSCLC is more than 100 µM; in the assay with ACHN renal, more than 100 µM; in the assay with HT29 colon it was more than 100 µM; in the assay with LOX IMVI melanoma it was more than 100 µM; in the assay with MDA-MB-435, 89.1 µM; in the assay with NCI-H522 lung, more than 100 µM. Besides, the TGI in the assay with OVCAR-3 ovarian is 44.1 µM; in the assay with SK-MEL-2 melanoma it was 31.6 µM; in the assay with SW-620 colon, more than 100 µM; in the assay with TK-10 renal, more than 100 µM.

The values are drawn from PubChem BioAssay (NCI).
